Patent US9522914B2, “Azole derivative” (TAISHO PHARMACEUTICAL CO., LTD, priority 2011, dated 2016)

The molecules below were run against Human V1b receptor (Homo sapiens (Human), UniProt P47901) (assay: Binding Test for V1b Receptor ([3H]AVP, crude membrane preparation of 293FT cells)). Conditions: inhibition of [3H]AVP binding (0.4 to 1 nmol/L), room temperature, 60 minutes.
Experimental: Binding Test for V1b Receptor
Human V1b receptor was transiently expressed in 293FT cells (Invitrogen). The cells were collected and then homogenated in a 15 mmol/L tris-hydrochloric acid buffer (pH 7.4 and containing 2 mmol/L magnesium chloride, 0.3 mmol/L ethylenediaminetetracetic acid, and 1 mmol/L glycol ether diaminetetraacetic acid). The resulting homogenate was centrifuged at 50,000×g at 4° C. for 20 minutes. The precipitate was resuspended in a 75 mmol/L tris-hydrochloric acid buffer (pH 7.4 and containing 12.5 mmol/L magnesium chloride, 0.3 mmol/L ethylenediaminetetracetic acid, 1 mmol/L glycol ether diaminetetraacetic acid, and 250 mmol/L sucrose) to give a crude membrane preparation, which was stored at −80° C. until the binding test was initiated. In the binding test, the crude membrane preparation was diluted with a 50 mmol/L tris-hydrochloric acid buffer (pH 7.4 and containing 10 mmol/L magnesium chloride and 0.1% bovine serum albumin) and mixed with each test compound and [^3H]AVP (final concentration: 0.4 to 1 nmol/L), followed by incubation at room temperature for 60 minutes. The test compound was serially diluted with DMSO so that it would have final concentrations of 0.01 nmol/L to 1 μmol/L at the time of mixing. After the incubation, the mixture was suction filtered through a GF/C filter that was preliminarily impregnated with 0.3% polyethyleneimine. The GF/C filter was dried and after adding a scintillator, the residual radioactivity on the filter was measured using TopCount (PerkinElmer Inc.). The radioactivity in the presence of unlabeled AVP at […] was defined as 0%, and the radioactivity in the absence of unlabeled AVP was defined as 100%. A dose-response curve was plotted from radio activities in the presence of a test compound at various concentrations, and the 50% inhibitory concentration (IC50 value) of the test compound was calculated.

Sequence of Human V1b receptor (P47901 whole entry): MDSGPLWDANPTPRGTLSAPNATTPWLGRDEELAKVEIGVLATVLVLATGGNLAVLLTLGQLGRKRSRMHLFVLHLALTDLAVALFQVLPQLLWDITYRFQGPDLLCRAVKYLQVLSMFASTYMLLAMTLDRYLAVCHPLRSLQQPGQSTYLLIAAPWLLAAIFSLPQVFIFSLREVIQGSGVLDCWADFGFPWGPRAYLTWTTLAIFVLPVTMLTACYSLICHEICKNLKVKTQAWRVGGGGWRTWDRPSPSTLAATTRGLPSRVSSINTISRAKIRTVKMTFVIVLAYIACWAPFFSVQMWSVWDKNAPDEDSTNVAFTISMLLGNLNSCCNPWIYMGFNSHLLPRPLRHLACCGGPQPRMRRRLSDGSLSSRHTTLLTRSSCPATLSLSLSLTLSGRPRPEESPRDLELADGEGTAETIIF

| SMILES | IC50 [nM] |
| --- | --- |
| CCN(CCOC)CCc1ccc(-c2cn(CC(=O)NC(C)C)c(-c3ccc(F)c(OC)c3)n2)cc1 [Example A-32, 2-[4-(4-{2-[ethyl(2-methoxyethyl)amino]ethyl}phenyl)-2-(4-fluoro-3-methoxyphenyl)-1H-imidazol-1-yl]-N-(propan-2-yl)acetamide] | 100 to 1000 |
| CC(C)NC(=O)Cn1cc(-c2ccc(OCCN3CCCCC3)cc2)nc1-c1cccc(Cl)c1 [Example A-33, 2-[2-(3-chlorophenyl)-4-{4-[2-(piperidin-1-yl)ethoxy]phenyl}-1H-imidazol-1-yl]-N-(propan-2-yl)acetamide] | 100 to 1000 |
| CC(C)NC(=O)Cn1cc(-c2cccc(OCCN3CCCCC3)c2)nc1-c1cccc(Cl)c1 [Example A-34, 2-[2-(3-chlorophenyl)-4-{3-[2-(piperidin-1-yl)ethoxy]phenyl}-1H-imidazol-1-yl]-N-(propan-2-yl)acetamide] | 100 to 1000 |
| CC(C)NC(=O)Cn1cc(-c2cccc(OCCCN3CCCCC3)c2)nc1-c1cccc(Cl)c1 [Example A-35, 2-[2-(3-chlorophenyl)-4-{3-[3-(piperidin-1-yl)propoxy]phenyl}-1H-imidazol-1-yl]-N-(propan-2-yl)acetamide] | 100 to 1000 |
| COc1cc(-c2nc(-c3ccc(CCN4CCOCC4)cc3)cn2CC(=O)NC(C)C)ccn1 [Example A-41, 2-[2-(2-methoxypyridin-4-yl)-4-{4-[2-(morpholin-4-yl)ethyl]phenyl}-1H-imidazol-1-yl]-N-(propan-2-yl)acetamide] | 100 to 1000 |
| COc1cccc(-c2nc(-c3ccc(CCN4C5CCC4COC5)cc3)cn2CC(=O)NC(C)C)c1 [Example A-42, 2-[2-(3-methoxyphenyl)-4-{4-[2-(3-oxa-8-azabicyclo[3.2.1]oct-8-yl)ethyl]phenyl}-1H-imidazol-1-yl]-N-(propan-2-yl)acetamide] | 6.3 |
| CC(C)NC(=O)Cn1cc(N2CCN(CCN3CCOCC3)CC2=O)nc1-c1cccc(Cl)c1 [Example A-46, 2-[2-(3-chlorophenyl)-4-{4-[2-(morpholin-4-yl)ethyl]-2-oxopiperazin-1-yl}-1H-imidazol-1-yl]-N-(propan-2-yl)acetamide] | 100 to 1000 |
| CC(C)NC(=O)Cn1cc(C(=O)NC2CCC(N3CCOCC3)CC2)nc1-c1cccc(Cl)c1 (stereo not drawn) [Example A-47, 2-(3-chlorophenyl)-N-[4-(morpholin-4-yl)cyclohexyl]-1-[2-oxo-2-(propan-2-ylamino)ethyl]-1H-imidazole-4-carboxamide] | 100 to 1000 |
| CC(C)NC(=O)Cn1cc(C(=O)N(C)C2CCC(N3CCOCC3)CC2)nc1-c1cccc(Cl)c1 (stereo not drawn) [Example A-48, 2-(3-chlorophenyl)-N-methyl-N-[4-(morpholin-4-yl)cyclohexyl]-1-[2-oxo-2-(propan-2-ylamino)ethyl]-1H-imidazole-4-carboxamide] | 100 to 1000 |
| CC(C)NC(=O)Cn1cc(C(=O)N2CCC(CCN3CCOCC3)C2)nc1-c1cccc(Cl)c1 (stereo not drawn) [Example A-49, 2-[2-(3-chlorophenyl)-4-({3-[2-(morpholin-4-yl)ethyl]pyrrolidin-1-yl}carbonyl)-1H-imidazol-1-yl]-N-(propan-2-yl)acetamide] | 100 to 1000 |
| CC(C)NC(=O)Cn1nc(-c2ccc(CCN3C4CCC3COC4)cc2)nc1-c1cccc(Cl)c1 [Example B-01, 2-[5-(3-chlorophenyl)-3-{4-[2-(3-oxa-8-azabicyclo[3.2.1]oct-8-yl)ethyl]phenyl}-1H-1,2,4-triazol-1-yl]-N-(propan-2-yl)acetamide] | 1.4 |
| CC(C)NC(=O)Cn1nc(-c2ccc(CN3CCN(C)CC3)cc2)nc1-c1cccc(Cl)c1 [Example B-03, 2-[5-(3-chlorophenyl)-3-{4-[(4-methylpiperazin-1-yl)methyl]phenyl}-1H-1,2,4-triazol-1-yl]-N-(propan-2-yl)acetamide] | 100 to 1000 |
| CC(C)NC(=O)Cn1nc(-c2ccc(CCN3C4CCC3COC4)cn2)nc1-c1cccc(Cl)c1 [Example B-04, 2-[5-(3-chlorophenyl)-3-{5-[2-(3-oxa-8-azabicyclo[3.2.1]oct-8-yl)ethyl]pyridin-2-yl}-1H-1,2,4-triazol-1-yl]-N-(propan-2-yl)acetamide] | 7.4 |
| COc1cccc(-c2nc(-c3ccc(CCN4C5CCC4COC5)cn3)nn2CC(=O)NC(C)C)c1 [Example B-05, 2-[5-(3-methoxyphenyl)-3-{5-[2-(3-oxa-8-azabicyclo[3.2.1]oct-8-yl)ethyl]pyridin-2-yl}-1H-1,2,4-triazol-1-yl]-N-(propan-2-yl)acetamide] | 11 |

The next lines start with the values.

| IC50 [nM] | SMILES |
| --- | --- |
| 21 | CC(C)NC(=O)Cn1cc(-c2ccc(CCN3CCOCC3)nc2)nc1-c1cccc(Cl)c1 [Example A-30, 2-[2-(3-chlorophenyl)-4-{6-[2-(morpholin-4-yl)ethyl]pyridin-3-yl}-1H-imidazol-1-yl]-N-(propan-2-yl)acetamide] |
| 10 to 100 | CCN(CC)CCc1ccc(-c2cn(CC(=O)NC(C)C)c(-c3ccc(F)c(OC)c3)n2)cc1 [Example A-31, 2-[4-{4-[2-(diethylamino)ethyl]phenyl}-2-(4-fluoro-3-methoxyphenyl)-1H-imidazol-1-yl]-N-(propan-2-yl)acetamide] |
| 20 | COc1cccc(-c2nc(-c3ccc(CCN4CCOCC4)cc3)c(C)n2CC(=O)NC(C)C)c1 [Example A-36, 2-[2-(3-methoxyphenyl)-5-methyl-4-{4-[2-(morpholin-4-yl)ethyl]phenyl}-1H-imidazol-1-yl]-N-(propan-2-yl)acetamide] |
| 10 to 100 | COc1cccc(-c2nc(-c3ccc(CCN4CCCCC4)cc3)cn2CC(=O)NC(C)C)c1 [Example A-37, 2-[2-(3-methoxyphenyl)-4-{4-[2-(piperidin-1-yl)ethyl]phenyl}-1H-imidazol-1-yl]-N-(propan-2-yl)acetamide] |
| 10 | COc1cccc(-c2nc(-c3ccc(CCN4CCOCC4)cc3)cn2CC(=O)NC(C)C)c1 [Example A-38, 2-[2-(3-methoxyphenyl)-4-{4-[2-(morpholin-4-yl)ethyl]phenyl}-1H-imidazol-1-yl]-N-(propan-2-yl)acetamide] |
| 1 | CC(C)NC(=O)Cn1cc(-c2ccc(CCN3CCOCC3)cc2)nc1-c1ccc(F)c(Cl)c1 [Example A-39, 2-[2-(3-chloro-4-fluorophenyl)-4-{4-[2-(morpholin-4-yl)ethyl]phenyl}-1H-imidazol-1-yl]-N-(propan-2-yl)acetamide] |
| 10 to 100 | COc1cncc(-c2nc(-c3ccc(CCN4CCOCC4)cc3)cn2CC(=O)NC(C)C)c1 [Example A-40, 2-[2-(5-methoxypyridin-3-yl)-4-{4-[2-(morpholin-4-yl)ethyl]phenyl}-1H-imidazol-1-yl]-N-(propan-2-yl)acetamide] |
| 0.49 | CC(C)NC(=O)Cn1cc(-c2ccc(CCN3CCOCC3)cc2F)nc1-c1cccc(Cl)c1 [Example A-43, 2-[2-(3-chlorophenyl)-4-{2-fluoro-4-[2-(morpholin-4-yl)ethyl]phenyl}-1H-imidazol-1-yl]-N-(propan-2-yl)acetamide] |
| 0.16 | CC(C)NC(=O)Cn1cc(-c2ccc(CC(C)N3CCOCC3)cc2)nc1-c1cccc(Cl)c1 (stereo not drawn) [Example A-44, 2-[2-(3-chlorophenyl)-4-{4-[2-(morpholin-4-yl)propyl]phenyl}-1H-imidazol-1-yl]-N-(propan-2-yl)acetamide] |
| 34 | CC(C)NC(=O)Cn1cc(-n2ccc(CCN3CCOCC3)cc2=O)nc1-c1cccc(Cl)c1 [Example A-45, 2-[2-(3-chlorophenyl)-4-{4-[2-(morpholin-4-yl)ethyl]-2-oxopyridin-1(2H)-yl}-1H-imidazol-1-yl]-N-(propan-2-yl)acetamide] |
